According to patent publication US20230234983A1, “SQUALAMINE CRYSTALLINE POLYMORPHS” (Enterin, Inc., priority 2022, published 2023):
“Also recorded” adds a separate entry of the source.

Columns and labels:
Type in all cases: physicochemical
[1] = Physical stability upon exposure to AAC (40° C./75% RH) for 2 days, remeasured by HT-XRPD; conditions: for solid form conversion upon exposure to AAC: HT-XRPD
Description: (§1) The solvent equilibration experiments were incubated in the Crystal16™ parallel crystallization reactor at 5, 25 and 50° C. for 3 days. Up on completion of the ageing time, the solids were separated from the liquid phases, dried at ambient conditions and under vacuum, and analyzed by HT-XRPD. Afterwards, all solids were exposed to AAC (40° C./75% RH) for 2 days and remeasured by HT-XRPD. The liquids were analyzed by Karl Fisher to estimate the water content. The experimental details and results are reported in Table 9, Table 10 and Table 11.
(§2) Upon completion of the equilibration time, the solids were dried at ambient conditions and under vacuum (5 mbar/50° C./overnight) and analyzed by HT-XRPD. Afterwards, all solids were exposed to AAC (40° C./75% RH) for 2 days and remeasured by HT-XRPD.
as §2, with “Table 11: Experimental details and results of equilibration experiments performed at 50° C. for 1 week. Upon” for “Upon”, “mbar/RT/overnight)” for “mbar/50° C./overnight)”

[2] = Investigation under variable RH levels by DVS and XRPD
Description: The powder data were collected on D8 Advance diffractometer using Cu Kα1 radiation (1.54056 Å) with germanium monochromator at 30° C. using the SYCOS H-HOT hot humid chamber produced by Ansyco GmbH. The data were collected in the Bragg-Brentano geometry (locked coupled) from 8 to 35θ 2θ on the flat sample holder (without rotation) on solid state LynxEye detector with 0.018θ per step with 1 sec/step scan speed. After reaching demanded humidity the sample was relaxed for 5 minutes before measurement. The sample was optionally measured with 2 seconds per step and in the last measurement at RH 000 the relaxation time was elongated to 30 min.

[3] = Physical stability upon drying under vacuum, HT-XRPD
Description: as §1, §2
Thermocycling experiments were started by preparing suspensions of Form B1 in the selected anhydrous solvents. The suspensions were subjected to a temperature profile between 50 and 5° C., followed by aging at 25° C. for 72 hours. Upon completion of the aging time, the solids were separated from the liquid phases, dried at ambient conditions and under vacuum, and measured by HT-XRPD. When solutions were recovered, those were left to evaporate at ambient conditions.

[4] = Physical stability of Form B1 at three storage conditions (Example 10)
Description: Solid samples of Form B 1 was incubated at three different conditions to test physical stability: 80° C., closed vial, 24 hours; 60° C./29% RH, open vial, 48 hours; and 40° C./75% RH, open vial, 48 hours. The solids recovered after the stability studies were analyzed by HIR-XRPD, TGMS, and DSC.

[5] = sample recovered from thermocycling in ethyl acetate

CC(C)[C@@H](CC[C@@H](C)[C@H]1CC[C@H]2[C@@H]3[C@H](O)C[C@H]4C[C@@H](NCCCNCCCCN)CC[C@]4(C)[C@H]3CC[C@]12C)OS(=O)(=O)O.O=P(O)(O)O [Form A2, squalamine phosphate]
physical stability upon exposure to AAC [1]: physically unstable
solid form conversion upon exposure to AAC ([1]; listed as A2): converted to Form A1

CC(C)[C@@H](CC[C@@H](C)[C@H]1CC[C@H]2[C@@H]3[C@H](O)C[C@H]4C[C@@H](NCCCNCCCCN)CC[C@]4(C)[C@H]3CC[C@]12C)OS(=O)(=O)O.O=P(O)(O)O [Form F, squalamine phosphate]
solid form conversion upon exposure to AAC ([1]; listed as F): converted to Form A1

CC(C)[C@@H](CC[C@@H](C)[C@H]1CCC2C3C(CC[C@@]21C)[C@@]1(C)CC[C@H](NCCCNCCCCN)C[C@@H]1C[C@H]3O)OS(=O)(=O)O.O=P(O)(O)O (stereo in doubt) [Form D, squalamine phosphate]
physical stability upon exposure to AAC [1]: physically unstable
solid form conversion upon exposure to AAC [1]: converted to a mixture containing Form A1 and an unknown phase

CC(C)[C@@H](CC[C@@H](C)[C@H]1CC[C@H]2[C@@H]3[C@H](O)C[C@H]4C[C@@H](NCCCNCCCCN)CC[C@]4(C)[C@H]3CC[C@]12C)OS(=O)(=O)O.O=P(O)(O)O [Form C, squalamine phosphate]
behaviour on release of water at low RH levels or at high temperature [2]: converting to Form A1

CC(C)[C@@H](CC[C@@H](C)[C@H]1CC[C@H]2[C@@H]3[C@H](O)C[C@H]4C[C@@H](NCCCNCCCCN)CC[C@]4(C)[C@H]3CC[C@]12C)OS(=O)(=O)O.O=P(O)(O)O [Form A1, squalamine phosphate]
solid form conversion in vacuum-dried solids of the hydrate screen ([3]; vacuum-dried, in some cases): converted to the mixed hydrate/solvate Form A2, or to the low-degree hydrates B1 and B2

CC(C)[C@@H](CC[C@@H](C)[C@H]1CC[C@H]2[C@@H]3[C@H](O)C[C@H]4C[C@@H](NCCCNCCCCN)CC[C@]4(C)[C@H]3CC[C@]12C)OS(=O)(=O)O.O=P(O)(O)O [Form B1, squalamine phosphate]
solid form conversion upon exposure to AAC ([1]; listed as B1): converted to Form A1
RH at which the form already absorbs water, converting to Form A1 [4]: 29 % RH
Mass loss (%) ([4]; TGMS of solid recovered after 40° C./75% RH, open vial 48 h): 8.9%
Mass loss (%) ([4]; TGMS of solid recovered after 60° C./29% RH, open vial 48 h): 9.0%
Mass loss (%) ([4]; TGMS of solid recovered after 80° C., closed vial, 24 h): 1.8%

CC(C)[C@@H](CC[C@@H](C)[C@H]1CC[C@H]2[C@@H]3[C@H](O)C[C@H]4C[C@@H](NCCCNCCCCN)CC[C@]4(C)[C@H]3CC[C@]12C)OS(=O)(=O)O.O=P(O)(O)O [Form B2, squalamine phosphate]
solid form conversion upon exposure to AAC ([1]; listed as B2): converted to Form A1; also recorded: conversion to Form A1
physical stability upon drying [3, 5]: not physically stable
solid form conversion upon drying [3, 5]: converted to a mixture of Forms A1 and D
physical stability upon drying ([3]; samples recovered from 1-propanol and THE): stable

CC(C)[C@@H](CC[C@@H](C)[C@H]1CC[C@H]2[C@@H]3[C@H](O)C[C@H]4C[C@@H](NCCCNCCCCN)CC[C@]4(C)[C@H]3CC[C@]12C)OS(=O)(=O)O.O=P(O)(O)O [Form E, squalamine phosphate]
solid form conversion upon exposure to AAC ([1]; listed as E): converted to Form A1
solid form conversion upon drying under vacuum ([3]; 5 mbar/50° C./overnight, solid from thermocycling in methanol): converted to Form F; also recorded: conversion to a poorly crystalline phase, classified as Form F
Physical Stability ([3]; upon drying at 50° C.): Unstable upon
